Measured values taken from patent US20260159854A1, “NOVEL CARRIERS FOR NUCLEIC ACID AND/OR PROTEIN DELIVERY” (LUDWIG-MAXIMILIANS-UNIVERSITÄT MÜNCHEN, priority 2022, published 2026).

Experiments:
[1] = Particle size, polydispersity and zeta potential measurement (DLS, ELS); assay type: physicochemical; design: Zeta / Size: unit not given here
Protocol: 6.6 Particle Size and Zeta Potential Measurement for pDNA, mRNA, siRNA, Cas9 mRNA/sgRNA and Cas9 mRNA/sgRNA/ssDNA Polyplexes as Well as mRNA LNPs
Measurements of size and zeta potential were performed with a Zetasizer Nano ZS (Malvern Instruments, Malvern, Worcestershire, U.K.) in a folded capillary cell (DTS1070) by dynamic and electrophoretic laser-light scattering (DLS, ELS). […] Samples were measured three times with six sub runs per measurement. For measurement of the zeta potential, all samples were diluted to 800 μL with HBG or HEPES (for siRNA polyplexes) directly before measurement. Parameters were identical to the size measurement apart from an equilibration time of 60 sec. Three measurements with 15 sub runs lasting 10 sec each were performed, and zeta potentials were calculated by the Smuchowski equation.

[2] = tested on: Huh7 cells; test: Luciferase gene expression of mRNA LNPs in Huh7 cells; assay type: cell-based, human; settings: 62.5 ng mRNA/well, N/P 9
[3] = tested on: N2a/eGFPLuc, KB/eGFPLuc, and CT26/eGFPLuc; test: Gene silencing activity of siRNA LNPs in three cell lines; assay type: cell-based; settings: N/P 9, 63 and 31 ng siRNA/well, 48 h
[4] = tested on: N2a/eGFPLuc cells; test: eGFP knock out efficiency of Cas9 mRNA/sgGFP1 polyplexes by flow cytometry; assay type: cell-based, murine; settings: after 72 h
Protocol: For Cas9 mRNA/sgRNA polyplexes, CleanCap® Cas9 mRNA (5moU) (Trilink Biotechnologies, San Diego, CA, USA) and sgRNA at a fixed weight ratio of 1:1 were mixed and diluted in HBG.
Calculated amounts of aminolipid at indicated N/P (nitrogen/phosphate) ratios (see above) were diluted in separate tubes of HBG. Equal volumes of nucleic acid solution and aminolipid solution were mixed by rapid pipetting and incubated 40 min at RT in a closed Eppendorf reaction tube.
Cas9 mRNA/sgRNA polyplex treatments were performed in triplicate in 96-well plates. N2a eGPFLuc cells were seeded 24 h prior to transfection (5000 cells/well). On the next day, the medium was replaced with 80 μL of fresh pre-warmed medium containing 10% (v/v) FBS. The nanoparticles were prepared as described above, and the volumes of 20, 10, and 5 μL of polyplex solution (2.5 μg/mL Cas9 mRNA and 2.5 μg/mL sgGFP1) were added. 20 μL HBG buffer per well was used as negative control. After 24 h of treatment, the cells were expanded, and the medium was replaced by 100 μL of fresh pre-warmed medium and incubated for additional 48 h. […] Only isolated viable cells were evaluated. The eGFP knock out efficiency was determined as the percentage of eGFP negative cells normalized to the control measurements with HBG buffer-treated cells.

[5] = tested on: N2a/eGFPLuc, DU145/eGFPLuc, and KB/eGFPLuc; test: Gene silencing activity of siRNA polyplexes in three cell lines; assay type: cell-based, murine, human; settings: N/P 18, 15.6 ng siRNA/well, 48 h
[6] = tested on: N2a cells; test: Co-delivery efficiency of mRNA/pDNA polyplexes by flow cytometry; assay type: cell-based, murine; settings: N/P 18, 25 and 50 ng combined nucleic acid/well
Protocol: CleanCap® mCherry mRNA (5moU) (Trilink Biotechnologies, San Diego, CA, USA) and pEGFP-N1 pDNA (Clontech Laboratories, Inc. (now Takara Bio USA, Inc., San Jose, CA, USA)) at a fixed weight ratio of 1:1 were mixed and diluted in HBG. Calculated amounts of aminolipid at indicated N/P (nitrogen/phosphate) ratios (see above) were diluted in separate tubes of HBG. Equal volumes of nucleic acid solution and aminolipid solution were mixed by rapid pipetting and incubated 40 min at RT in a closed Eppendorf reaction tube. The final concentration of nucleic acid in the polyplex solution was 5 μg/mL (2.5 μg/mL mCherry mRNA plus 2.5 μg/mL pEGFP-N1 pDNA).
mRNA/pDNA polyplex treatments were performed in triplicate in 96-well plates. N2a cells were seeded 24 h prior to transfection (10,000 cells/well). On the next day, the medium was replaced with 80 μL of fresh pre-warmed medium containing 10% (v/v) FBS. The nanoparticles were prepared as described above, and the volumes of 10 and 5 μL of polyplex solution (2.5 μg/mL mCherry mRNA and 2.5 μg/mL pEGFP-N1 pDNA) were added. 20 μL HBG buffer per well was used as negative control. After 24 h of treatment, cells were collected and re-suspended in PBS solution containing 10% (v/v) FBS (FACS buffer) for flow cytometric evaluation. All samples were analyzed by flow cytometry using a CytoFLEX S Flow Cytometer (Beckman Coulter, Brea, CA, USA). Shortly before the measurement, 1 ng/μL 4′, 6-diamidino-2-phenylindole (DAPI) was added and used to discriminate between viable and dead cells. The cellular fluorescence was assayed by excitation of DAPI at 405 nm and detection of emission at 450 nm. Only isolated viable cells were evaluated. Gates were set compared to control measurements with HBG buffer-treated cells. […] Flow cytometry data were analyzed using FlowJo™ v10.8 flow cytometric analysis software by FlowJo, LLC (Becton, Dickinson and Company, U.S.). The cellular fluorescence expression was assayed by excitation at 561 nm and 488 nm, the detection of emission at 610 nm and 530 nm for mCherry and eGFP, respectively.

[7] = tested on: KB, U87, and HCT116 cells; settings: 10 ng poly(I:C) per well, 48 h, especially in KB cells
Protocol: The cytotoxic effect of double-stranded RNA (poly(I:C)) was evaluated in cancer cells using LAF carriers 1611, 1719, and 1752. The toxicity induced by poly(I:C) and carriers were differentiated by using non-toxic single-stranded poly(I). LPEI and the LAF-Stp carriers were transfected in medium supplemented with 10% (v/v) FBS. In the case of lipofectamine, particles were prepared and transfected according to the manufacturer's protocol (particle formation as well as transfection in serum-free medium; ThermoFisher). At 4 h after lipofectamine transfection, medium was replaced with fresh medium supplemented with 10% (v/v) FBS followed by incubation of 48 h in total. The percentage of cell survival was calculated relative to the HBG buffer-treated control cells (n=3, mean+SD).

[8] = tested on: Huh7 cells; test: Luciferase expression assay of pDNA polyplexes in Huh7 cells; assay type: cell-based, human
[9] = tested on: N2a tumor-bearing A/J mice; test: Ex vivo luciferase expression after intravenous injection of mRNA polyplexes; assay type: in vivo; settings: tumors, lungs, liver, spleen
Protocol: Neuro2a cells (10^6 cells/150 μL PBS) were inoculated subcutaneously into the left flank of 6-week-old female A/J mice (Envigo RMS GmbH, Dusseldorf, Germany). Mice were randomly divided into groups of three (in the case of mRNA LNPs) or five (in the case of mRNA polyplexes) and were housed in isolated ventilated cages under specific pathogen free conditions with a 12 h day/night interval, and food and water ad libitum. Weight and general well-being were monitored continuously. Tumor size was measured with a caliper and determined by formula: a*b^2/2 (a=longest side of the tumor; b=widest side vertical to a). When tumors reached a size of 250-500 mm3, the experiments were performed by intravenous tail vein injection of polyplexes or LNPs formed as described in 6.1 and 6.3, containing 1 μg, 3 μg or 10 μg of stabilized firefly luciferase encoding mRNA (CleanCap™ FLuc mRNA (5moU); Trilink Biotechnologies, San Diego, CA, USA) in 150 μL HBG. Polyplexes containing 10 μg mRNA were dialyzed for 1 h at 4° C. against HBG (dialysis membrane MWCO 100-500 Da; Spectra/Por®, Carl Roth, Karlsruhe, Germany) prior to application to remove small amounts of ethanol. […] The luciferase gene expression was determined as described above and is presented as relative light units (RLU) per gram (g) tumor/organ.
To evaluate luciferase mRNA delivery by an ex vivo luciferase gene expression assay, organ and tumor tissues were homogenized in Luciferase Cell Culture Lysis Reagent 1× (Promega, Mannheim, Germany), supplemented with 1% (v/v) protease and phosphatase inhibitor cocktail (Sigma-Aldrich, Munich, Germany) using a tissue and cell homogenizer (FastPrep®-24, MP Biomedicals, USA). […] Luciferase activity in 25 μL supernatant was measured in a Centro LB 960 plate reader luminometer (Berthold Technologies, Bad Wildbad, Germany) for 10 sec after addition of 100 μL/well of a LAR buffer solution (20 mM glycylglycine, 1.0 mM MgCl2, 0.10 mM EDTA, 3.3 mM DTT, 0.55 mM ATP, and 0.27 mM coenzyme A; pH 8-8.5) supplemented with 5% (v/v) of a mixture of 10 mM luciferin and 29 mM glycylglycine.

[10] = mRNA LNPs, 12.5 μg/mL CleanCap FLuc mRNA (5moU), N/P 9, molar ratios see Table A
[11] = siRNA LNPs, siCtrl 25 μg/mL, N/P 9
[12] = mRNA polyplexes, 12.5 μg/mL CleanCap FLuc mRNA (5moU), N/P 12 (1611, 1719, 1722, 1732), N/P 24 (1614), N/P 18 (1621, 1747)
[13] = Cas9 mRNA/sgDMDex23 polyplexes, N/P 24, combined nucleic acid 12.5 μg/mL
[14] = PEGylated pDNA polyplexes 25% PEG, 10 μg/mL pCMVLuc
[15] = Targeted pDNA polyplexes 12.5% PEG 2k, 12.5% PEG-GE11, 10 μg/mL pCMVLuc
[16] = Unmodified pDNA polyplexes 0%, 10 μg/mL pCMVLuc
[17] = dialyzed mRNA polyplexes for in vivo application, 66.7 μg/mL mRNA, 1611 N/P 18, 1719 N/P 12
[18] = pDNA polyplexes, N/P 12, 10 μg/mL pCMVLuc
[19] = poly(I) polyplexes, 12.5 μg/mL, 1611 N/P 18, 1719 N/P 12, 1752 N/P 24
[20] = poly(I:C) polyplexes, 12.5 μg/mL, 1611 N/P 18, 1719 N/P 12, 1752 N/P 24

K[K(14He)2]2-Stp [compound 1755]
Pdl [1, 10]: 0.220
Z-average [1, 10]: 149.6 nm
Zeta potential [1, 10]: 2.26 mV
Pdl [1, 11]: 0.287
Z-average [1, 11]: 160.6 nm
Zeta potential [1, 11]: 3.4 mV
luciferase expression of mRNA LNPs relative to SM-102 [2]: 2 fold

K[K(10Oc)2]2-Stp [compound 1762]
Pdl [1, 11]: 0.104
Z-average [1, 11]: 244.3 nm
Zeta potential [1, 11]: −3.2 mV
gene silencing (eGFP silencing) of siRNA LNPs [3]: approximately the same potential for eGFP silencing

K[K(16Bu)2]2-Stp [compound 1753]
Pdl [1, 10]: 0.227
Z-average [1, 10]: 142.1 nm
Zeta potential [1, 10]: 3.39 mV
Pdl [1, 11]: 0.292
Z-average [1, 11]: 195.1 nm
Zeta potential [1, 11]: 2.6 mV
gene silencing (eGFP silencing) of siRNA LNPs [3]: approximately the same potential for eGFP silencing

K(8Oc)2-Stp2-K[K(8Oc)2] [compound 1732]
Pdl [1, 12]: 0.304
Z-average [1, 12]: 98.2 nm
Zeta potential [1, 12]: 26.2 mV
eGFP knock-out efficiency of Cas9 mRNA/sgRNA polyplexes [4]: good knock-out efficiency

K(12Oc)2-Stp-K[K(12Oc)2] [compound 1716]
Pdl [1, 10]: 0.150
Z-average [1, 10]: 200.9 nm
Zeta potential [1, 10]: −0.25 mV
gene silencing efficiency of siRNA polyplexes in three cell lines [5]: great performance in all three tested cell lines
mCherry mRNA/eGFP pDNA co-expression (co-delivery efficiency) [6]: most potent structures

K[K(12He)2]2-Stp [compound 1754]
Pdl [1, 10]: 0.187
Z-average [1, 10]: 171.0 nm
Zeta potential [1, 10]: 1.11 mV
Pdl [1, 11]: 0.144
Z-average [1, 11]: 173.0 nm
Zeta potential [1, 11]: 2.2 mV
RLU values of mRNA LNPs relative to DLin-MC3-DMA [2]: 10 fold

[K(12Oc)]2-Stp2-[K(12Oc)]2 [compound 1719]
Pdl [1, 13]: 0.268
Z-average [1, 13]: 80.8 nm
Zeta potential [1, 13]: 42.6 mV
Pdl [1, 14]: 0.13
Size [1, 14]: 76
Zeta [1, 14]: 10.5
Pdl [1, 15]: 0.13
Size [1, 15]: 88
Zeta [1, 15]: 10.5
Pdl [1, 16]: 0.09
Size [1, 16]: 77
Zeta [1, 16]: 29.5
Pdl [1, 17]: 0.176 ± 0.016
Zeta potential [1, 17]: 30.7 ± 1.7 mV
Pdl [1, 12]: 0.225
Z-average [1, 12]: 75.0 nm
Zeta potential [1, 12]: 33.0 mV
Pdl [1, 18]: 0.220 ± 0.001
Z-average [1, 18]: 110.4 ± 1.89 nm
Zeta potential [1, 18]: 13.0 ± 0.5 mV
Pdl [1, 19]: 0.32 ± 0.08
Z-average [1, 19]: 86.8 ± 11.4 nm
Zeta potential [1, 19]: 23.2 ± 0.4 mV
Pdl [1, 20]: 0.25 ± 0.05
Z-average [1, 20]: 95.9 ± 2.1 nm
Zeta potential [1, 20]: 13.8 ± 2.9 mV
cell viability after poly(I:C) polyplex treatment [7]: significant decrease in the cell viability
RLU values of targeted polyplexes in comparison to shielded polyplexes ([8]; N/P 12, pDNA dose 50 ng/well): 6.5 fold
RLU values of targeted polyplexes in comparison to shielded polyplexes ([8]; N/P 12, pDNA dose 100 ng/well): 4.4 fold
in vivo luciferase expression of mRNA polyplexes [9]: great in vivo performance
